Assay results as given in PubChem BioAssay AID2060604 (Molecular Pharmacology Branch, DTP, NCI, 2025).

Tested on: 379773-124-R-J2-PDC complex spheroids, viability % test/control
Assay: Anticancer human tumor 379773-124-R-J2-PDC patient-derived endometrial carcinoma cell line growth inhibition [CLK]
Details: for IC50: curve of first compound; for viability, T/C: stronger effect = lower value
Procedure, shortened: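 Multi-cell-type spheroids combined patient-derived tumor cells with HUVEC endothelial cells and human mesenchymal stem cells. Paired agents were dosed in half-log steps down from about clinical Cmax, or from 10 microM where Cmax was unknown.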

[1] = second compound 0.0316 µM, first compound 0.0316 µM
[2] = second compound 0.0316 µM, first compound 0.1 µM
[3] = second compound 0.0316 µM, first compound 0.316 µM
[4] = second compound 0.0316 µM, first compound 1 µM
[5] = second compound 0.0316 µM, first compound 3.16 µM
[6] = second compound 0.0316 µM, first compound 10 µM
[7] = second compound 0.1 µM, first compound 0.0316 µM
[8] = second compound 0.1 µM, first compound 0.1 µM
[9] = second compound 0.1 µM, first compound 0.316 µM
[10] = second compound 0.1 µM, first compound 1 µM
[11] = second compound 0.1 µM, first compound 3.16 µM
[12] = second compound 0.1 µM, first compound 10 µM
[13] = second compound 0.316 µM, first compound 0.0316 µM
[14] = second compound 0.316 µM, first compound 0.1 µM
[15] = second compound 0.316 µM, first compound 0.316 µM
[16] = second compound 0.316 µM, first compound 1 µM
[17] = second compound 0.316 µM, first compound 3.16 µM
[18] = second compound 0.316 µM, first compound 10 µM
[19] = second compound 1 µM, first compound 0.0316 µM
[20] = second compound 1 µM, first compound 0.1 µM
[21] = second compound 1 µM, first compound 0.316 µM
[22] = second compound 1 µM, first compound 1 µM
[23] = second compound 1 µM, first compound 3.16 µM
[24] = second compound 1 µM, first compound 10 µM
[25] = second compound 3.16 µM, first compound 0.0316 µM
[26] = second compound 3.16 µM, first compound 0.1 µM
[27] = second compound 3.16 µM, first compound 0.316 µM
[28] = second compound 3.16 µM, first compound 1 µM
[29] = second compound 3.16 µM, first compound 3.16 µM
[30] = second compound 3.16 µM, first compound 10 µM
[31] = second compound 10 µM, first compound 0.0316 µM
[32] = second compound 10 µM, first compound 0.1 µM
[33] = second compound 10 µM, first compound 0.316 µM
[34] = second compound 10 µM, first compound 1 µM
[35] = second compound 10 µM, first compound 3.16 µM
[36] = second compound 10 µM, first compound 10 µM
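Note: compound exposure lasted seven days before the viability readout.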
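Throughout, for viability, T/C: 100% = DMSO vehicle control wells.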

## CC1COCCN1c1cc(C2(S(C)(=N)=O)CC2)nc(-c2ccnc3[nH]ccc23)n1 (centres undefined) + CN1CCN(c2cc(C(=O)Nc3cc4cc(-c5cnn(C)c5)ccc4cn3)ccn2)CC1
Second compound 0.0316 µM
  IC50: 2500 nM
Second compound 0.1 µM
  IC50: 2820 nM
Second compound 0.316 µM
  IC50: < 31.6 nM
Second compound 1 µM
  IC50: < 31.6 nM
Second compound 3.16 µM
  IC50: < 31.6 nM
Second compound 10 µM
  IC50: < 31.6 nM
[1]
  viability, T/C: 98.2%
[2]
  viability, T/C: 95.1%
[3]
  viability, T/C: 80.2%
[4]
  viability, T/C: 74%
[5]
  viability, T/C: 42.8%
[6]
  viability, T/C: 17.2%
[7]
  viability, T/C: 84.2%
[8]
  viability, T/C: 75.7%
[9]
  viability, T/C: 77.5%
[10]
  viability, T/C: 64.9%
[11]
  viability, T/C: 49.3%
[12]
  viability, T/C: 12.5%
[13]
  viability, T/C: 21.9%
[14]
  viability, T/C: 26.2%
[15]
  viability, T/C: 20.1%
[16]
  viability, T/C: 15.6%
[17]
  viability, T/C: 10.6%
[18]
  viability, T/C: 3.29%
[19]
  viability, T/C: 0.11%
[20]
  viability, T/C: 0.2%
[21]
  viability, T/C: 0.96%
[22]
  viability, T/C: 2.48%
[23]
  viability, T/C: 0.1%
[24]
  viability, T/C: 0.06%
[25]
  viability, T/C: 1.57%
[26]
  viability, T/C: 1.16%
[27]
  viability, T/C: 0.14%
[28]
  viability, T/C: 0.1%
[29]
  viability, T/C: 0.12%
[30]
  viability, T/C: 0.1%
[31]
  viability, T/C: 0.14%
[32]
  viability, T/C: 0.36%
[33]
  viability, T/C: 1.74%
[34]
  viability, T/C: 0.18%
[35]
  viability, T/C: 3%
[36]
  viability, T/C: 0.19%

## O=C(c1cc(Cc2n[nH]c(=O)c3ccccc23)ccc1F)N1CCN(C(=O)C2CC2)CC1 + CN1CCN(c2cc(C(=O)Nc3cc4cc(-c5cnn(C)c5)ccc4cn3)ccn2)CC1
Second compound 0.0316 µM
  IC50: > 10000 nM
Second compound 0.1 µM
  IC50: 6850 nM
Second compound 0.316 µM
  IC50: < 31.6 nM
Second compound 1 µM
  IC50: < 31.6 nM
Second compound 3.16 µM
  IC50: < 31.6 nM
Second compound 10 µM
  IC50: < 31.6 nM
[1]
  viability, T/C: 101%
[2]
  viability, T/C: 98.7%
[3]
  viability, T/C: 87.9%
[4]
  viability, T/C: 89.9%
[5]
  viability, T/C: 78.6%
[6]
  viability, T/C: 51.7%
[7]
  viability, T/C: 73.5%
[8]
  viability, T/C: 76.6%
[9]
  viability, T/C: 87.8%
[10]
  viability, T/C: 94.2%
[11]
  viability, T/C: 76.6%
[12]
  viability, T/C: 36.9%
[13]
  viability, T/C: 16.7%
[14]
  viability, T/C: 22.3%
[15]
  viability, T/C: 15.1%
[16]
  viability, T/C: 23.2%
[17]
  viability, T/C: 16.8%
[18]
  viability, T/C: 12.3%
[19]
  viability, T/C: 0.11%
[20]
  viability, T/C: 1.49%
[21]
  viability, T/C: 0.2%
[22]
  viability, T/C: 1.01%
[23]
  viability, T/C: 0.08%
[24]
  viability, T/C: 1.87%
[25]
  viability, T/C: 1.24%
[26]
  viability, T/C: 0.11%
[27]
  viability, T/C: 1.32%
[28]
  viability, T/C: 0.09%
[29]
  viability, T/C: 0.1%
[30]
  viability, T/C: 0.09%
[31]
  viability, T/C: 0.19%
[32]
  viability, T/C: 0.11%
[33]
  viability, T/C: 0.46%
[34]
  viability, T/C: 0.66%
[35]
  viability, T/C: 0.18%
[36]
  viability, T/C: 0.19%
